Laboratory results from patent US8173668B1 (Alcon Research, Ltd., priority 2007, dated 2012).

Assays:
[1] = molecular target: T1, B2-receptors in h-CM cells (Homo sapiens, UniProt P30411); assay: [Ca2+]i mobilization (FLIPR) in h-CM cells, agonist mode; type: cell-based; details: h-CM cells, mean ± SEM
T1 construct: B2-receptor proteins in h-TM, h-CM and h-NPE cells; endogenous in cells; host or cells: human trabecular meshwork (h-TM), human ciliary muscle (h-CM) and human non-pigmented ciliary epithelial (h-NPE) cells
T1 sequence (P30411 1-391): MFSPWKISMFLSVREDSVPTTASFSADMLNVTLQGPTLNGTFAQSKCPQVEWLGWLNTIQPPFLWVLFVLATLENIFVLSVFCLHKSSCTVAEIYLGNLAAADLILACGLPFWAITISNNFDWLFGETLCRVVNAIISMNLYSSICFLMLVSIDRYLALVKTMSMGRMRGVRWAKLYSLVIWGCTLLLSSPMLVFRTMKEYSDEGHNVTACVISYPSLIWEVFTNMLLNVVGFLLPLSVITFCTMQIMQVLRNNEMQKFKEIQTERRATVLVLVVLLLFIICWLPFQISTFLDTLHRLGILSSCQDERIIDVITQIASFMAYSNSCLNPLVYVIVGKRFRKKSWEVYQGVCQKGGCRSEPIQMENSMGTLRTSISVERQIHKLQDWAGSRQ
Experimental: On the day of the experiment, one vial of FLIPR Calcium Assay Kit dye is re-suspended in 50 mL of a FLIPR buffer consisting of Hank's Balanced Salt Solution (HBSS), 20 mM HEPES, and 2.5 mM probenecid, pH 7.4. Cells are loaded with the calcium-sensitive dye by addition of an equal volume (50 μL) to each well of the 96-well plate and incubated with dye for 1 h at 23° C. After this time, the test compound plate and cell plate are placed in the FLIPR instrument. At the beginning of an experimental run, a signal test is performed to check the basal fluorescence signal from the dye-loaded cells and the uniformity of the signal across the plate. The basal fluorescence is adjusted between 8000-12000 counts by modifying the exposure time, the camera F-stop, or the laser power. Instrument settings for a typical assay are the following: laser power 0.3-0.6 W, camera F-stop F/2, and exposure time 0.4 sec.
Fluorescence data are collected in real-time at 1.0 sec intervals for the first 60 secs and at 6.0 sec intervals for an additional 120 secs. […] The data are then analyzed using an automated, iterative, sigmoidal curve-fitting computer program to obtain the potency and intrinsic activities of the test agents as previously described (Sharif et al. J. Pharmacol. Exp. Ther. 286: 1094-1102, 1998; Sharif et al. Invest. Ophthalmol. Vis. Sci. 39:2562-2571, 1998; Kelly et al. J. Pharmacol. Exp. Ther. 304: 238-245, 2003). The sources of materials and reagents for such assays can be found in the references cited above.

[2] = tested on: anterior eye segments of pig eyes; assay: Outflow facility in perfused anterior eye segments; details: 1 μM, perfused porcine anterior eye segments, n=5; FIG. 8
Experimental: Anterior eye segments obtained from postmortem porcine eyes were used to study the effects of non-peptide agonists on fluid outflow through the trabecular meshwork and Schlemms' canal (Erickson-Lamey et al., Curr. Eye Res. 7: 799-807, 1988; Vaajanen et al. J. Ocular Pharmacol. Ther. 23: 124-131, 2007). The postmortem eyes were placed in DMEM containing 50 U/ml penicillin, 50 μg/mL streptomycin, and 5 μg/mL amphotericin B prior to dissection under sterile conditions. Eyes were bisected at the to equator and the anterior chamber transferred to a petri dish. The lens was removed and the remaining choroid, iris, and ciliary body gently teased away. […] Perfusion pressure for standard perfusion was maintained at a constant level of 10 mmHg, and rate of fluid outflow monitored continuously (i.e. by means of a Model ACCU 124 analytical balance; Fisher Scientific, Pittsburgh, Pa.) throughout the experiment. The rate of fluid flow was recorded by a computer utilizing Collect XL software (Lab Tronics, Inc; Guelph, Ontario, Canada). Outflow facility was calculated as the ratio of flow rate to perfusion pressure (μL/min/mmHg).
Preparations were allowed to stabilize overnight (14-16 hr), and baseline facilities were then recorded for 40-60 min. […]

[3] = tested on: h-CM cells; assay: MMP activity in h-CM cells after 24 hour exposure; type: cell-based, human; details: 1 μM
Experimental: As with FP-class prostanoids, the IOP-lowering effects of BK may involve the stimulation of production of various MMPs that in turn digest the extracellular matrix (ECM) to promote outflow and thus lower IOP (Mietz et al., Invest. Ophthalmol. Vis. Sci. 44: 5182-5188, 2003; Webb et al., J. Ocular Pharmacol. Ther. 22: 310-316, 2006). Cells isolated from human or animal ocular or non-ocular tissues, or cells expressing recombinant (preferably human) BK receptors are seeded in 48-wells culture plates and allowed to reach confluence. […] BK (100 nM) can be used a positive control compound. After this time the supernatant from each well is concentrated 20-fold (Centricon Concentrators; Millipore Corp., Bedford, Mass.). Equivalent volumes of media are then loaded onto 12% sodium dodicyl sulfate polyacrylamide gels, where the secreted proteins are separated according to their molecular weights by standard SDS-polyacrylamide gel electrophoresis protocols and transferred onto nitrocellulose paper. The level of MMP-1, MMP-2, MMP-3 and MMP-9 is then determined by immunoblot analysis with rabbit polyclonal anti-MMP antibodies. Bands are visualized by the addition of anti-rabbit horseradish peroxidase-conjugated secondary antibodies (New England Biolabs, Inc.; Beverly, Mass.) and enhanced chemiluminescent reagents (Pierce Biotechnology, Inc., Rockford, Ill.) (Mietz et al., Invest. Ophthalmol. Vis. Sci. 44: 5182-5188, 2003; Webb et al., J. Ocular Pharmacol. Ther. 22: 310-316, 2006). BK agonists should stimulate the production of some or all of MMP-1, MMP-2, MMP-3 and MMP-9. […] However, BK agonists with lower potencies than the above limits, whether partial or full agonists, can still be considered useful ocular hypotensive agents and may be useful as such.
Enhancement of such MMP synthesis and release by h-CM in response to FR-190997 may explain the efficacious IOP-lowering observed with this BK agonist in the glaucomatous monkey eyes (see below).

Emax ([1]; read-out: Intrinsic Activity (Emax, % max relative to BK)): 63%
EC50 ([1]; read-out: Potency (EC50), [Ca2+]i mobilization): 174 ± 21 nM
SMILES: CNC(=O)c1ccc(/C=C/C(=O)NCC(=O)N(C)c2ccc(Cl)c(COc3cccc4c(OCc5ccccn5)cc(C)nc34)c2Cl)cc1 [FR-190997]
outflow facility [2]: increased the outflow facility flow
MMP-1 activity [3]: 59 % above basal levels
MMP-2 activity [3]: not MMP-2 activity
MMP-3 activity [3]: 96 % above basal levels
